Experimental data taken from patent US11390604B2 (Hoffmann-La Roche Inc., priority 2019, dated 2022).
Counter-ions that a name gives are not always drawn.

What follows are compounds tested on Acinetobacter baumannii ATCC 17961 (assay: Antimicrobial susceptibility testing: 90% growth inhibitory concentration (IC90) determination). Details: ATCC17961, Acinetobacter baumannii ATCC 17961, Iso-Sensitest broth, read-out: ATCC 17961 IC90.
Format: cell-based
Summary of the method: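 Growth was followed kinetically by OD600 at 20-min intervals for 16 h at 35±2 °C, with ~5×10^5 CFU/ml in Iso-Sensitest broth. Compounds were tested as twofold dilutions (e.g. 50–0.097 μM final). The concentration giving 90% inhibition of log-phase growth was reported.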
Compound `Cn1c(-c2cn(C3CC3)nc2C(F)(F)F)cnc1C(=O)Nc1ccc(C(=O)N2CCN(C(=O)C3(O)CCNC3)CC2)c(Cl)c1` (stereo not shown) [Example 318, N-[3-chloro-4-[4-(3-hydroxypyrrolidine-3-carbonyl)piperazine-1-carbonyl]phenyl]-5-[1-cyclopropyl-3-(trifluoromethyl)pyrazol-4-yl]-1-methylimidazole-2-carboxamide;hydrochloride] has an IC90 of 396 nM.
`Cn1c(-c2c[nH]nc2-c2ccccc2)cnc1C(=O)Nc1ccc(C(=O)N2CCN(C(=O)C3CCNCC3)CC2)c(Cl)c1` [Example 66, N-[3-chloro-4-[4-(piperidine-4-carbonyl)piperazine-1-carbonyl]phenyl]-1-methyl-5-(3-phenyl-1H-pyrazol-4-yl)imidazole-2-carboxamide] was tested, and the IC90 was 825 nM.
With `C=CCn1cc(-c2cnc(C(=O)Nc3ccc(C(=O)N4CCN(C(=O)NC5CNC5)CC4)c(Cl)c3)n2C)c(C(F)(F)F)n1` [Example 147, N-(azetidin-3-yl)-4-[2-chloro-4-[[1-methyl-5-[1-prop-2-enyl-3-(trifluoromethyl)pyrazol-4-yl]imidazole-2-carbonyl]amino]benzoyl]piperazine-1-carboxamide] the IC90 was 289 nM.
Work on `Cn1c(-c2cn(CC#N)nc2C(F)(F)F)cnc1C(=O)Nc1ccc(C(=O)N[C@H]2CC[C@@H](NC(=O)[C@H]3C[C@H](N)C3)CC2)c(Cl)c1` [Example 372, rac-N-(4-(((1S,4s)-4-((1r,3R)-3-aminocyclobutane-1-carboxamido)cyclohexyl)car-bamoyl)-3-chlorophenyl)-5-(1-(cyanomethyl)-3-(trifluoromethyl)-1H-pyrazol-4-yl)-1-methyl-1H-imidazole-2-carboxamide 2,2,2-trifluoroacetate] yielded an IC90 of 486 nM.
Work on `Cn1c(-c2cn(C3CC3)nc2C(F)(F)F)cnc1C(=O)Nc1ccc(C(=O)N2CCN(C(=O)[C@H]3CC[C@H](N)CC3)CC2)c(Cl)c1` [Example 231, N-[4-[4-(4-aminocyclohexanecarbonyl)piper-azine-1-carbonyl]-3-chlorophenyl]-5-[1-cyclopropyl-3-(trifluoromethyl)pyrazol-4-yl]-1-methylimidazole-2-carboxamide;hydrochloride] yielded an IC90 of 267 nM.
`CN(C)C(=O)Cn1cc(-c2cnc(C(=O)Nc3ccc(C(=O)N4CCN(C(=O)C5CCNCC5)CC4)c(Cl)c3)n2C)c(C(F)(F)F)n1` [Example 21, N-(3-chloro-4-(4-(piperidine-4-carbonyl)piperazine-1-carbonyl)phenyl)-5-(1-(2-(dimethylamino)-2-oxoethyl)-3-(trifluoromethyl)-1H-pyrazol-4-yl)-1-methyl-1H-imidazole-2-carboxamide formate] gave an IC90 of 1870 nM.
`CCc1cc(NC(=O)c2ncc(-c3cn(CC#N)nc3C(F)(F)F)n2C)ccc1C(=O)N1CCN(C(=O)NC2C3CNCC32)CC1` (stereo not shown) [Example 140, N-(3-azabicyclo[3.1.0]hexan-6-yl)-4-[4-[[5-[1-(cyanomethyl)-3-(trifluoromethyl)pyrazol-4-yl]-1-methylimidazole-2-carbonyl]amino]-2-ethylbenzoyl]piperazine-1-carboxamide;formic acid] gave an IC90 of 1050 nM.
`Cn1c(-c2cn(CC3CC(F)(F)C3)nc2C(F)(F)F)cnc1C(=O)Nc1ccc(C(=O)N2CCN(C(=O)C3CCNCC3)CC2)c(Cl)c1` [Example 111, N-[3-chloro-4-[4-(piperidine-4-carbonyl)piperazine-1-carbonyl]phenyl]-5-[1-[(3,3-difluorocyclobutyl)methyl]-3-(trifluoromethyl)pyrazol-4-yl]-1-methylimidazole-2-carboxamide;hydrochloride] gave an IC90 of 344 nM.
With `Cn1c(-c2cn(C3CC3)nc2C(F)(F)F)cnc1C(=O)Nc1ccc(C(=O)N2CCN(C(=O)[C@@H]3CCC[C@@H]3N)CC2)c(Cl)c1` [Example 243, N-(4-(4-((1R,2S)-2-aminocyclopentane-1-carbonyl)piperazine-1-carbonyl)-3-chlorophenyl)-5-(1-cyclopropyl-3-(trifluoromethyl)-1H-pyrazol-4-yl)-1-methyl-1H-imidazole-2-carboxamide hydrochloride] the IC90 was 286 nM.
Compound `Cn1c(-c2cn(CC3CCC3)nc2C(F)(F)F)cnc1C(=O)Nc1ccc(C(=O)N2CCN(C(=O)CN)CC2)c(Cl)c1` [Example 202, N-(3-chloro-4-(4-glycylpiperazine-1-carbonyl)phenyl)-5-(1-(cyclobutylmethyl)-3-(trifluoromethyl)-1H-pyrazol-4-yl)-1-methyl-1H-imidazole-2-carboxamide hydrochloride] has an IC90 of 216 nM.
`Cn1c(-c2cn(CC(N)=O)nc2C(F)(F)F)cnc1C(=O)Nc1ccc(C(=O)N2CCN(C(=O)C3CCNCC3)CC2)c(Cl)c1` [Example 20, 5-(1-(2-amino-2-oxoethyl)-3-(trifluoromethyl)-1H-pyrazol-4-yl)-N-(3-chloro-4-(4-(piperidine-4-carbonyl)piperazine-1-carbonyl)phenyl)-1-methyl-1H-imidazole-2-carboxamide formate] showed an IC90 of 1660 nM.
Compound `Cn1c(-c2cn(CC#N)nc2C(F)(F)F)cnc1C(=O)Nc1ccc(C(=O)N2CCN(C(=O)N[C@H]3CCNC3)CC2)c(Cl)c1` [Example 143, 4-[2-chloro-4-[[5-[1-(cyanomethyl)-3-(trifluoromethyl)pyrazol-4-yl]-1-methylimidazole-2-carbonyl]amino]benzoyl]-N-[(3S)-pyrrolidin-3-yl]piperazine-1-carboxamide;formic acid] has an IC90 of 426 nM.
Compound `C#CCn1cc(-c2cnc(C(=O)Nc3ccc(S(C)(=O)=NCCCN)c(C)c3)n2C)c(C(F)(F)F)n1` (stereo not shown) [Example 342, N-[4-[N-(3-aminopropyl)-S-methyl-sulfonimidoyl]-3-methyl-phenyl]-1-methyl-5-[1-prop-2-ynyl-3-(trifluoromethyl)pyrazol-4-yl]imidazole-2-carboxamide; formic acid] has an IC90 of 442 nM.
`Cn1c(-c2cn(C3CCC3)nc2C(F)(F)F)cnc1C(=O)Nc1ccc(C(=O)N2CCN(C(=O)C3CCNCC3)CC2)c(Cl)c1` [Example 10, N-(3-chloro-4-(4-(piperidine-4-carbonyl)piperazine-1-carbonyl)phenyl)-5-(1-cyclobutyl-3-(trifluoromethyl)-1H-pyrazol-4-yl)-1-methyl-1H-imidazole-2-carboxamide hydrochloride] gave an IC90 of 339 nM.
With `Cn1c(-c2cn(C3CC3)nc2C(F)(F)F)cnc1C(=O)Nc1ccc(C(=O)N[C@H]2C[C@@H](N)C2)c(Cl)c1` [Example 97, N-[4-[(3-aminocyclobutyl)carbamoyl]-3-chlorophenyl]-5-[1-cyclopropyl-3-(trifluoromethyl)pyrazol-4-yl]-1-methylimidazole-2-carboxamide] the IC90 was 595 nM.
`Cn1c(-c2cn(CCF)nc2C(F)(F)F)cnc1C(=O)Nc1ccc(C(=O)N2CCN(C(=O)[C@H]3C[C@@H](N)C3)CC2)c(Cl)c1` [Example 74, N-[4-[4-(3-aminocyclobutanecarbonyl)piperazine-1-carbonyl]-3-chlorophenyl]-5-[1-(2-fluoroethyl)-3-(trifluoromethyl)pyrazol-4-yl]-1-methylimidazole-2-carboxamide;hydrochloride] showed an IC90 of 347 nM.
`Cn1c(-c2cn(C3CC3(F)F)nc2C(F)(F)F)cnc1C(=O)Nc1ccc(C(=O)N2CCN(C(=O)C3CCNCC3)CC2)c(Cl)c1` (stereo not shown) [Example 267, N-(3-chloro-4-(4-(piperidine-4-carbonyl)piperazine-1-carbonyl)phenyl)-5-(1-(2,2-difluorocyclopropyl)-3-(trifluoromethyl)-1H-pyrazol-4-yl)-1-methyl-1H-imidazole-2-carboxamide formate] gave an IC90 of 332 nM.
`C#CCn1cc(-c2cnc(C(=O)Nc3ccc(C(=O)N4CCN(C(=O)N5CC[C@@H](N)C5)CC4)c(Cl)c3)n2C)c(C(F)(F)F)n1` [Example 79, N-[4-[4-[(3R)-3-aminopyrrolidine-1-carbonyl]piperazine-1-carbonyl]-3-chlorophenyl]-1-methyl-5-[1-prop-2-ynyl-3-(trifluoromethyl)pyrazol-4-yl]imidazole-2-carboxamide] gave an IC90 of 131 nM.
`C#CCn1cc(-c2cnc(C(=O)Nc3ccc(C(=O)N4CCN(C(=O)N[C@H]5C[C@@H](N)C5)CC4)c(Cl)c3)n2C)c(C(F)(F)F)n1` [Example 78, N-(3-aminocyclobutyl)-4-[2-chloro-4-[[1-methyl-5-[1-prop-2-ynyl-3-(trifluoromethyl)pyrazol-4-yl]imidazole-2-carbonyl]amino]benzoyl]piperazine-1-carboxamide] was tested, and the IC90 was 109 nM.
Work on `CC(C#N)n1cc(-c2cnc(C(=O)Nc3ccc(C(=O)N4CCN(C(=O)C5CCNCC5)CC4)c(Cl)c3)n2C)c(C(F)(F)F)n1` (stereo not shown) [Example 117, N-[3-chloro-4-[4-(piperidine-4-carbonyl)piperazine-1-carbonyl]phenyl]-5-[1-(1-cyanoethyl)-3-(trifluoromethyl)pyrazol-4-yl]-1-methylimidazole-2-carboxamide;formic acid] yielded an IC90 of 427 nM.

Same assay, conditions: Acinetobacter baumannii, ATCC17961, read-out: ATCC 17961 IC90, Acinetobacter baumannii ATCC 17961, Iso-Sensitest broth
In the case of `Cn1c(-c2cn([C@H]3CC3(F)F)nc2C(F)(F)F)cnc1C(=O)Nc1ccc(C(=O)N[C@H]2[C@@H]3CN(C(=O)N[C@H]4CNC[C@@H]4O)C[C@@H]32)c(Cl)c1` [Example 183, (1S,5R)-6-[[2-chloro-4-[[5-[1-[(1S)-2,2-difluorocyclopropyl]-3-(trifluoromethyl)pyrazol-4-yl]-1-methyl-imidazole-2-carbonyl]amino]benzoyl]amino]-N-[(3S,4S)-4-hydroxypyrrolidin-3-yl]-3-azabicyclo[3.1.0]hexane-3-carboxamide; Hydrochloride], the IC90 is reported as 170 nM.
For `Cn1c(-c2cn(C3CC3(F)F)nc2C(F)(F)F)cnc1C(=O)Nc1ccc(C(=O)N2CCC(F)(CNC(=O)N[C@H]3CNC[C@@H]3O)CC2)c(Cl)c1` (relative stereo) [Example 179, N-(3-chloro-4-(4-fluoro-4-((3-(trans-4-hydroxypyrrolidin-3-yl)ureido)methyl)piperidine-1-carbonyl)phenyl)-5-(1-(2,2-difluorocyclopropyl)-3-(trifluoromethyl)-1H-pyrazol-4-yl)-1-methyl-1H-imidazole-2-carboxamide Formate], the IC90 was 192 nM.
